Reference: patent publication US8680269B2, “Pesticidal compositions” (Dow AgroSciences, LLC., priority 2009, dated 2014)

Legend:
Type in all cases: in vivo
[1] = test system: corn earworm (CEW; Helicoverpa zea); test: Insecticidal test for corn earworm, 128-well diet tray assay; settings: 144 h, 50 μg/cm2 on artificial diet, second instar larvae, six days at 25° C.
Protocol: (§1) Bioassays on corn earworm (CEW; Helicoverpa zea: Lepidoptera) were conducted using a 128-well diet tray assay. Three to five second instar CEW larvae were placed in each well (3 mL) of the diet tray that had been previously filled with 1 mL of artificial diet to which 50 μg/cm^2 of the test compound (dissolved in 50 μL of 90:10 acetone-water mixture) had been applied (to each of eight wells) and then allowed to dry. Trays were covered with a clear self-adhesive cover, and held at 25° C., 14:10 light-dark for six days. Percent mortality was recorded for the larvae in each well; activity in the eight wells was then averaged.

[2] = test system: beet armyworm (BAW; Spodoptera exigua); test: Insecticidal test for beet armyworm, 128-well diet tray assay; settings: 144 h, 50 μg/cm2 on artificial diet, second instar larvae, six days at 25° C.
Protocol: as §1, with “beet armyworm (BAW; Spodoptera exigua:” for “corn earworm (CEW; Helicoverpa zea:”, “BAW” for “CEW”

[3] = test system: green peach aphid (Myzus persicae); test: Insecticidal test for green peach aphid in foliar spray assay; settings: 72 h, 200 ppm foliar spray on cabbage seedlings, graded after three days, Abbott corrected % control, read-out: Mortality GPA 200 ppm
Protocol: Cabbage seedlings grown in 3-inch pots, with 2-3 small (3-5 cm) true leaves, were used as test substrate. The seedlings were infested with 20-50 green peach aphids (wingless adult and nymph) one day prior to chemical application. Four pots with individual seedlings were used for each treatment. Compounds (2 mg) were dissolved in 2 mL of acetone/methanol (1:1) solvent, forming stock solutions of 1000 ppm. The stock solutions were diluted 5× with 0.025% Tween 20 in H2O to obtain the test solution at 200 ppm. A hand-held Devilbiss sprayer was used for spraying a solution to both sides of cabbage leaves until runoff. Reference plants (solvent check) were sprayed with the diluent only. Treated plants were held in a holding room for three days at approximately 25° C. and 40% relative humidity (RH) prior to grading. Evaluation was conducted by counting the number of live aphids per plant under a microscope. Insecticidal activity data, measured by using Abbott's correction formula, are presented in Table 2: Corrected % Control=100*(X−Y)/X • where X=No. of live aphids on solvent check plants • Y=No. of live aphids on treated plants

| Structure (SMILES) | mortality at 50 µg/cm2 [1] [%] | mortality at 50 µg/cm2 [2] [%] | mortality at 200 ppm [3] [%] |
| --- | --- | --- | --- |
| CNc1ccc(NC(=S)N/N=C/c2ccc(-c3ncn(-c4ccc(OC(F)(F)F)cc4)n3)cc2)cc1 [Compound 42] | 50 to 100 | 50 to 100 | < 80 |
| CN(C)S(=O)(=O)c1ccccc1NC(=S)N/N=C/c1ccc(-c2ncn(-c3ccc(OC(F)(F)F)cc3)n2)cc1 [Compound 77] | 50 to 100 | 50 to 100 | < 80 |
| CCc1ccccc1NC(=S)N/N=C/c1ccc(-c2ncn(-c3ccc(OC(F)(F)F)cc3)n2)cc1 [Compound 62] | 50 to 100 | 50 to 100 | < 80 |
| Cc1cccc(C)c1NC(=S)N/N=C/c1ccc(-c2ncn(-c3ccc(OC(F)(F)C(F)(F)F)cc3)n2)cc1 [Compound 97] | 50 to 100 | 50 to 100 | < 80 |
| O=C(NC(=S)N/N=C/c1ccc(-c2ncn(-c3ccc(OC(F)(F)F)cc3)n2)cc1)c1ccc([N+](=O)[O-])cc1 [Compound 31] | < 50 | < 50 | < 80 |
| COc1cc(C)c(NC(=S)N/N=C/c2ccc(C3=NN(c4ccc(OC(F)(F)F)cc4)C(C(N)=O)C3)cc2)c(C)c1 (stereo not drawn) [Compound 133] | 50 to 100 | 50 to 100 | < 80 |
| CN(C)c1ccc(NC(=S)N/N=C/c2ccc(-c3ncn(-c4ccc(OC(F)(F)F)cc4)n3)cc2)c(C(F)(F)F)c1 [Compound 49] | 50 to 100 | 50 to 100 | < 80 |
| Cc1cccc(Cl)c1NC(=S)N/N=C/c1ccc(-c2ncn(-c3ccc(OC(F)(F)F)cc3)n2)cc1 [Compound 65] | 50 to 100 | 50 to 100 | < 80 |
| FC(F)(F)Oc1ccc(-n2cnc(-c3ccc(/C=N/NC(=S)NCc4ccc(Cl)cc4)cc3)n2)cc1 [Compound 34] | 50 to 100 | 50 to 100 | < 80 |
| Fc1cccc(F)c1NC(=S)N/N=C/c1ccc(-c2ncn(-c3ccc(OC(F)(F)F)cc3)n2)cc1 [Compound 47] | 50 to 100 | 50 to 100 | < 80 |
| COCCNC(=S)N/N=C/c1ccc(-c2ncn(-c3ccc(OC(F)(F)F)cc3)n2)cc1 [Compound 18] | 50 to 100 | 50 to 100 | < 80 |
| FC(F)(F)C(F)(F)Oc1ccc(-n2cnc(-c3ccc(/C=N/NC(=S)NCCc4ccccn4)cc3)n2)cc1 [Compound 9] | 50 to 100 | 50 to 100 | < 80 |
| CCCCCNC(=S)N/N=C/c1ccc(-c2ncn(-c3ccc(OC(F)(F)F)cc3)n2)cc1 [Compound 24] | < 50 | 50 to 100 | < 80 |
| Fc1ccccc1CNC(=S)N/N=C/c1ccc(-c2ncn(-c3ccc(OC(F)(F)F)cc3)n2)cc1 [Compound 22] | 50 to 100 | 50 to 100 | < 80 |
| COc1cccc(OC)c1NC(=S)N/N=C/c1ccc(-c2ncn(-c3ccc(OC(F)(F)F)cc3)n2)cc1 [Compound 57] | 50 to 100 | 50 to 100 | < 80 |
| CNC(=S)N/N=C/c1ccc(-c2ncn(-c3ccc(C(F)(F)F)cc3)n2)cc1 [Compound 15] | 50 to 100 | 50 to 100 | < 80 |
| FC(F)(F)Oc1ccc(-n2cnc(-c3ccc(/C=N/NC(=S)NCCc4ccccn4)cc3)n2)cc1 [Compound 6] | 50 to 100 | 50 to 100 | < 80 |

| Structure (SMILES) | mortality at 50 µg/cm2 [1] [%] | mortality at 50 µg/cm2 [2] [%] | mortality at 200 ppm [3] [%] |
| --- | --- | --- | --- |
| FC(F)(F)Oc1ccc(-n2cnc(-c3ccc(/C=N/NC(=S)NCc4ccco4)cc3)n2)cc1 [Compound 27] | 50 to 100 | 50 to 100 | < 80 |
| COc1cc(C)c(NC(=S)N/N=C/c2ccc(-c3ncn(-c4ccc(OC(F)(F)F)cc4)n3)cc2)c(C)n1 [Compound 129] | 50 to 100 | 50 to 100 | < 80 |
| COC(=O)C1CC(c2ccc(/C=N/NC(=S)Nc3c(C)cc(OC)cc3C)cc2)=NN1c1ccc(OC(F)(F)F)cc1 (stereo not drawn) [Compound 132] | 50 to 100 | 50 to 100 | < 80 |
| FC(F)(F)Oc1ccc(-n2cnc(-c3ccc(/C=N/NC(=S)NCc4ccccc4)cc3)n2)cc1 [Compound 3, N-benzyl-2-(4-(1-(4-(trifluoromethoxy)phenyl)-1H-1,2,4-triazol-3-yl)benzylidene)hydrazinecarbothioamide] | < 50 | 50 to 100 | < 80 |
| CN(C)c1cccc(CNC(=S)N/N=C/c2ccc(-c3ncn(-c4ccc(OC(F)(F)F)cc4)n3)cc2)c1 [Compound 38] | 50 to 100 | 50 to 100 | < 80 |
| FC(F)(F)Oc1ccc(-n2cnc(-c3ccc(/C=N/NC(=S)Nc4c(Cl)cccc4Cl)cc3)c2)cc1 [Compound 68] | 50 to 100 | 50 to 100 | < 80 |
| CNC(=S)N/N=C/c1ccc(-c2ncn(-c3ccc(OC(F)(F)F)cc3)n2)cc1 [Compound 13] | 50 to 100 | 50 to 100 | < 80 |
| COc1ccc(NC(=S)N/N=C/c2ccc(-c3ncn(-c4ccc(OC(F)(F)F)cc4)n3)cc2)c(F)c1 [Compound 50] | 50 to 100 | 50 to 100 | < 80 |
| FC(F)(F)Oc1ccc(NC(=S)N/N=C/c2ccc(-c3ncn(-c4ccc(OC(F)(F)F)cc4)n3)cc2)cc1 [Compound 26] | 50 to 100 | 50 to 100 | < 80 |
| FC(F)(F)Oc1ccc(-n2cnc(-c3ccc(/C=N/NC(=S)Nc4ccc(Cl)cc4Cl)cc3)n2)cc1 [Compound 55] | < 50 | < 50 | < 80 |
| CN(C)C(=S)N/N=C/c1ccc(-c2ncn(-c3ccc(C(F)(F)F)cc3)n2)cc1 [Compound 8] | 50 to 100 | 50 to 100 | < 80 |
| FC(F)(F)Oc1ccc(-n2cnc(-c3ccc(/C=N/NC(=S)NC4CCCCC4)cc3)n2)cc1 [Compound 25] | 50 to 100 | 50 to 100 | < 80 |
| O=C(N/N=C/c1ccc(-c2ncn(-c3ccc(OC(F)(F)F)cc3)n2)cc1)Nc1ccc(F)cc1 [Compound 35] | < 50 | < 50 | < 80 |
| CN(C)C(=S)N/N=C/c1ccc(-c2ncn(-c3ccc(OC(F)(F)F)cc3)n2)cc1 [Compound 11] | 50 to 100 | 50 to 100 | < 80 |
| CN(C)c1ccc(CNC(=S)N/N=C/c2ccc(-c3ncn(-c4ccc(OC(F)(F)F)cc4)n3)cc2)cc1 [Compound 37] | 50 to 100 | 50 to 100 | < 80 |
| CSc1ccccc1NC(=S)N/N=C/c1ccc(-c2ncn(-c3ccc(OC(F)(F)F)cc3)n2)cc1 [Compound 75] | 50 to 100 | 50 to 100 | < 80 |
